In general, IC50 refers to the concentration that inhibits the measured activity by half.

Assay [1] concerns the target butyrylcholinesterase (E.C. 3.1.1.8, from horse serum) (Equus caballus, UniProt P81908). Kind of assay: In vitro butyrylcholinesterase inhibition assay (Ellman's method). Type of assay: biochemical. The conditions noted are these: for Butyrylcholinesterse (BChE) %inhibition: compounds with <50% inhibition. A general note: Ellman's reagent forms a yellow product with free thiols.

Assay [2] addresses Acetylcholinesterase (E.C.3.1.1.7, from electric eel) (Electrophorus electricus, UniProt O42275). Kind of assay: biochemical. Type of assay: biochemical. The following applies: for IC50: electric eel AChE, pH 7.7, 37 °C, triplicate, read-out: Acetylcholinesterase (AChE) IC50 ± SEM.
A further assay addresses acetylcholinesterase (Electrophorus electricus, UniProt O42275). The experiment in a line: Kinetics studies, mechanism of inhibition (Lineweaver-Burk). It is filed as biochemical, electric eel. The following applies: substrate acetylthiocholine iodide; Vmax not affected, Km increased. The procedure: Enzyme kinetics were used to determine the mechanism of acetylcholinesterase inhibition. Lineweaver-Burk graph ([…]) were used for the determination of the type of inhibition and analysis of effect of inhibitor on Vmax and Kₘ. The slope Km/Vmax of each line in the Lineweaver-Burk plot was plotted against different concentrations of substrate and chemicals to determine the value of Ki.
Kinetics studies were performed on 5b and 5d with different concentrations of compounds and substrate. Four concentrations of 1 mM compound 5b (0, 0.06, 0.12, 0.18 µM), compound 5d (0, 0.3, 0.6, 0.9 µM) and four concentrations of substrate (0, 0.5, 1.0, 1.5 and 2.0 mM showing 1/S as 0.0, 2.0, 1.0, 0.667 and 0.5, respectively) were made. Both compounds competes with substrate (acetylthiocholine iodide) for binding in the active site of acetylcholinesterase.
Michaelis-Menten kinetics experiments were used to determine the type of enzyme inhibition. […] For this purpose, the initial rates of the enzyme inhibition at four concentrations of substrate (0, 0.5, 1.0, 1.5, 2.0 mM) in the absence and presence of four different concentrations of compound 5b (0, 0.06, 0.12, 0.18 µM) and compound 5d (0, 0.3, 0.6, 0.9 µM) against acetylcholinesterase were measured.

Chain of Acetylcholinesterase (E.C.3.1.1.7, from electric eel) (O42275 24-633): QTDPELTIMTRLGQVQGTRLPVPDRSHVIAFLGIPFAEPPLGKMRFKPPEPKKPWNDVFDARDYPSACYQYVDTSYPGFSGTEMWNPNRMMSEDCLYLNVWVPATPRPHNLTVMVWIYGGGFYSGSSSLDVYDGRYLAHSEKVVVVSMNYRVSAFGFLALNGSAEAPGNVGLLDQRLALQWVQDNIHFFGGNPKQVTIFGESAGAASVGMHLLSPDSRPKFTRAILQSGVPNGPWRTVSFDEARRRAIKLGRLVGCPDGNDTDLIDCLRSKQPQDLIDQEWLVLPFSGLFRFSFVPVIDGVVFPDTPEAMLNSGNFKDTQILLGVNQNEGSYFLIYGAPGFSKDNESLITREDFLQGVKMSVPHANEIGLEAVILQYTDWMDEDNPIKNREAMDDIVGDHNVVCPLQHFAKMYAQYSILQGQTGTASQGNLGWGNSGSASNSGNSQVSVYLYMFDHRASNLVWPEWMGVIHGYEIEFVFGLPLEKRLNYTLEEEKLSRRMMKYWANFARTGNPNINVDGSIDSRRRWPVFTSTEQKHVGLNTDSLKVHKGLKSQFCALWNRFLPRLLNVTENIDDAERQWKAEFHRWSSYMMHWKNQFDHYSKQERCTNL
Chain of acetylcholinesterase (O42275 24-633): as above
Chain of butyrylcholinesterase (E.C. 3.1.1.8, from horse serum) (P81908 whole entry): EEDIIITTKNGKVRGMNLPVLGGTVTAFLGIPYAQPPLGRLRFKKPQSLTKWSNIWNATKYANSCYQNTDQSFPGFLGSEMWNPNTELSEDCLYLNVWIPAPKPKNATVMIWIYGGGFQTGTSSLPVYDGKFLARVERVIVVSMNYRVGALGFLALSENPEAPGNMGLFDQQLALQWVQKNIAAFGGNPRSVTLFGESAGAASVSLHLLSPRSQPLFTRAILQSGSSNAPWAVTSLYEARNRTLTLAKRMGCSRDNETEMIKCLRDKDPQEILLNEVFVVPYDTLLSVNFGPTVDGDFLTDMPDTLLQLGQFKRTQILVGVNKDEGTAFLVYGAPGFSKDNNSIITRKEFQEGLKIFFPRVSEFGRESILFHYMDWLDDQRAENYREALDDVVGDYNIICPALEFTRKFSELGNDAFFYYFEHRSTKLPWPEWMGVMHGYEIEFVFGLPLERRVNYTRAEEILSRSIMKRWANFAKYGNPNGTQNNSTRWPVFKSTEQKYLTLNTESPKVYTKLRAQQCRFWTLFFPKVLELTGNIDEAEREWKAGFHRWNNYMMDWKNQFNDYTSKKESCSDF

As for `COc1ccc2cc(C=NNC(=S)Nc3ccccc3)c(Cl)nc2c1` [Compound 5i, 2-((2-Chloro-7-methoxyquinolin-3-yl)methylene)-N-phenylhydrazinecarbothioamide], the “Butyrylcholinesterse (BChE) %inhibition” value in assay [1] was determined as 24.0%. The 50% inhibitory concentration (IC50) in assay [2] was 60.9 ± 6.57 µM.

On to `Cc1ccc2cc(C=NNC(=S)NCCN3CCOCC3)c(Cl)nc2c1` [Compound 5d, 2-((2-Chloro-7-methylquinolin-3-yl)methylene)-N-(2-morpholinoethyl)hydrazinecarbothioamide], for which, in assay [1], the “Butyrylcholinesterse (BChE) %inhibition” value turned out to be 1.52%. The IC50 in assay [2] is 0.55 ± 0.01 µM. Moreover, the “Mode of inhibition of acetylcholinesterase” value at acetylcholinesterase is “competitive inhibition”.

Consider `Cc1ccc2nc(Cl)c(C=NNC(=S)Nc3ccccc3)cc2c1` [Compound 5h, 2-((2-Chloro-6-methylquinolin-3-yl)methylene)-N-phenylhydrazinecarbothioamide], for which the “Butyrylcholinesterse (BChE) %inhibition” value in assay [1] came to 32.6%. Also, the concentration for half-maximal inhibition (IC50) in assay [2] came out at 49.3 ± 2.49 µM.

`S=C(NCCN1CCOCC1)NN=Cc1cc2ccc(Cl)cc2nc1Cl` [Compound 5e, 2-((2,7-Dichloroquinolin-3-yl)methylene)-N-(2-morpholinoethyl)hydrazinecarbothioamide]: the “Butyrylcholinesterse (BChE) %inhibition” value in assay [1] amounted to 1.88%. The half-maximal inhibitory concentration (IC50) in assay [2] was determined as 10.5 ± 0.16 µM.

As for `Cc1ccc2cc(C=NNC(=S)Nc3ccccc3)c(Cl)nc2c1` [Compound 5j, 2-((2-Chloro-7-methylquinolin-3-yl)methylene)-N-phenylhydrazinecarbothioamide], in assay [1], the “Butyrylcholinesterse (BChE) %inhibition” value was determined as 16.8%. In assay [2], the half-inhibitory concentration (IC50) amounted to 46.5 ± 3.12 µM.

As to `S=C(NN=Cc1cc2ccc(Cl)cc2nc1Cl)Nc1ccccc1` [Compound 5k, 2-((2,7-Dichloroquinolin-3-yl)methylene)-N-phenylhydrazinecarbothioamide], the “Butyrylcholinesterse (BChE) %inhibition” value in assay [1] was determined as 20.3%. The concentration for half-maximal inhibition (IC50) in assay [2] came out at 47.1 ± 1.45 µM.

In the case of `COc1ccc2nc(Cl)c(C=NNC(=S)NCCN3CCOCC3)cc2c1` [Compound 5b, 2-((2-Chloro-6-methoxyquinolin-3-yl)methylene)-N-(2-morpholinoethyl)hydrazinecarbothioamide], the “Butyrylcholinesterse (BChE) %inhibition” value in assay [1] was 8.12%. Moreover, in assay [2], the IC50 is 0.12 ± 0.02 µM. For the same compound, the “Potency against AChE relative to standard drug galantamine” value in assay [2] (ratio of IC50 values vs galantamine) is listed as 5 fold. Besides, at acetylcholinesterase, the “Mode of inhibition of acetylcholinesterase” value is given as “competitive inhibition”.

With `COc1ccc2cc(C=NNC(=S)NCCN3CCOCC3)c(Cl)nc2c1` [Compound 5c, 2-((2-Chloro-7-methoxyquinolin-3-yl)methylene)-N-(2-morpholinoethyl)hydrazinecarbothioamide], in assay [1], the “Butyrylcholinesterse (BChE) %inhibition” value came to 1.33%. Besides, the IC50 in assay [2] stood at 5.53 ± 0.11 µM.

As to `COc1ccc2nc(Cl)c(C=NNC(=S)Nc3ccccc3)cc2c1` [Compound 5g, 2-((2-Chloro-6-methoxyquinolin-3-yl)methylene)-N-phenylhydrazinecarbothioamide], the IC50 in assay [1] (horse serum BChE, pH 7.7, 37 °C, triplicate, read-out: Butyrylcholinesterse (BChE) IC50 ± SEM) came to 11.3 ± 0.67 µM; in assay [2] it was 34.2 ± 1.02 µM.

For `S=C(NCCN1CCOCC1)NN=Cc1cc2ccccc2nc1Cl` [Compound 5a, 2-((2-Chloroquinolin-3-yl)methylene)-N-(2-morpholinoethyl)hydrazinecarbothioamide], the “Butyrylcholinesterse (BChE) %inhibition” value in assay [1] turned out to be 3.32%. In addition, the IC50 in assay [2] turned out to be 2.95 ± 0.24 µM.

On to `S=C(NN=Cc1cc2ccccc2nc1Cl)Nc1ccccc1` [Compound 5f, 2-((2-Chloroquinolin-3-yl)methylene)-N-phenylhydrazinecarbothioamide], for which the “Butyrylcholinesterse (BChE) %inhibition” value in assay [1] is on record as 4.47%. Further, the IC50 in assay [2] amounted to 23.2 ± 1.28 µM.

Values taken from paper PMC8587653 (Molecules, 2021).
